Results as given in PubChem BioAssay AID248 (DTP/NCI, 2004).
Several values for one entry are separate records, joined by “and”; a condition that tells them apart may be missing. Equal entries are not always repeated. Inconclusive results and toxic doses are left out. Rule as the data show it: active = T/C of 150% or more; inactive = T/C below 125%.

Tested on: L1210 leukemia ip in BDF1 mice, survival T/C
Experiment: NCI In Vivo Anticancer Drug Screen. Data for tumor model L1210 Leukemia (intraperitoneal) in B6D2F1 (BDF1) mice
Settings: endpoint: mean survival time, higher = longer survival
In short: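 In this screen, tumor-bearing mice given compound are compared to those given vehicle, and their survival values are reported as a treated-to-control quotient.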

[1] = dose: 100.0 mg/kg/injection, schedule: Q01DX001 (ip), vehicle: saline
[2] = dose: 200.0 mg/kg/injection, schedule: Q01DX001 (ip), vehicle: saline
[3] = dose: 400.0 mg/kg/injection, schedule: Q01DX001 (ip), vehicle: saline
[4] = dose: 100.0 mg/kg/injection, schedule: Q04DX003 (ip), vehicle: saline
[5] = dose: 200.0 mg/kg/injection, schedule: Q04DX003 (ip), vehicle: saline
[6] = dose: 400.0 mg/kg/injection, schedule: Q04DX003 (ip), vehicle: saline
[7] = dose: 100.0 mg/kg/injection, schedule: Q01DX009 (ip), vehicle: Klucel (hydroxypropylcellulose) (HPC)
[8] = dose: 100.0 mg/kg/injection, schedule: Q04DX003 (ip), vehicle: Klucel (hydroxypropylcellulose) (HPC)
[9] = dose: 200.0 mg/kg/injection, schedule: Q01DX009 (ip), vehicle: Klucel (hydroxypropylcellulose) (HPC)
[10] = dose: 200.0 mg/kg/injection, schedule: Q04DX003 (ip), vehicle: Klucel (hydroxypropylcellulose) (HPC)
[11] = dose: 100.0 mg/kg/injection, schedule: Q01DX009 (ip), vehicle: saline with Tween-80
[12] = dose: 200.0 mg/kg/injection, schedule: Q01DX009 (ip), vehicle: saline with Tween-80
[13] = dose: 100.0 mg/kg/injection, schedule: Q01DX009 (ip), vehicle: saline
[14] = dose: 200.0 mg/kg/injection, schedule: Q01DX009 (ip), vehicle: saline
[15] = dose: 50.0 mg/kg/injection, schedule: Q01DX009 (ip), vehicle: saline

Measured: T/C

O=Cc1ccc[nH]1
inactive: dose: 100.0 mg/kg/injection, schedule: Q04DX003 (ip), vehicle: other 93 % of control | dose: 200.0 mg/kg/injection, schedule: Q04DX003 (ip), vehicle: other 96 % of control | dose: 400.0 mg/kg/injection, schedule: Q04DX003 (ip), vehicle: other 110 % of control

O=C(OC1CC2CCC1CC2)c1ccc([N+](=O)[O-])cc1 (configuration not stated)
inactive: [1] 97 % of control | [2] 95 % of control | [3] 92 % of control

O=c1nc2n(CCC[N+](=O)[O-])c3ccccc3nc-2c(=O)[nH]1
inactive: [1] 102 % of control | [4] 88 % of control | [2] 98 % of control | [5] 96 % of control | [3] 102 % of control | [6] 115 % of control

CCCCC(CC)CCC(O)CC(C)C (configuration not stated)
inactive: dose: 50.0 mg/kg/injection, schedule: Q04DX003 (ip), vehicle: Klucel (hydroxypropylcellulose) (HPC) 91 % of control | [7] 104 % of control | [8] 92 % of control | [9] 101 % of control | [10] 97 % of control | dose: 400.0 mg/kg/injection, schedule: Q01DX009 (ip), vehicle: Klucel (hydroxypropylcellulose) (HPC) 89 % of control | dose: 400.0 mg/kg/injection, schedule: Q04DX003 (ip), vehicle: Klucel (hydroxypropylcellulose) (HPC) 96 % of control

CC(Cc1ccccc1)NC1=NCCO1 (configuration not stated)
inactive: [11] 91 % of control | [12] 91 % of control | dose: 400.0 mg/kg/injection, schedule: Q01DX009 (ip), vehicle: saline with Tween-80 89 % of control

COC(=O)c1ccc(C(C)=O)cc1
inactive: dose: 100.0 mg/kg/injection, schedule: Q01DX001 (ip), vehicle: saline with Tween-80 103 % of control | dose: 200.0 mg/kg/injection, schedule: Q01DX001 (ip), vehicle: saline with Tween-80 97 % of control | dose: 400.0 mg/kg/injection, schedule: Q01DX001 (ip), vehicle: saline with Tween-80 100 % of control

O=C(Cn1ccc(=O)[nH]c1=O)c1ccco1
inactive: [4] 102 % of control | [5] 107 % of control | [6] 98 % of control

CCCCCCCCOc1ccccn1
inactive: [11] 110 % of control | dose: 100.0 mg/kg/injection, schedule: Q04DX003 (ip), vehicle: saline with Tween-80 100 % of control | [12] 91 % of control | dose: 200.0 mg/kg/injection, schedule: Q04DX003 (ip), vehicle: saline with Tween-80 105 % of control | dose: 400.0 mg/kg/injection, schedule: Q04DX003 (ip), vehicle: saline with Tween-80 103 % of control

CCC(=O)c1cc(OC)cc(OC)c1
inactive: [13] 105 % of control | [14] 105 % of control | dose: 400.0 mg/kg/injection, schedule: Q01DX009 (ip), vehicle: saline 112 % of control

C=CCc1ccccc1NC(=O)NCCCl
inactive: dose: 50.0 mg/kg/injection, schedule: Q01DX009 (ip), vehicle: Klucel (hydroxypropylcellulose) (HPC) 106 % of control | [7] 100 % of control | [8] 93 % of control | [9] 111 % of control | [10] 104 % of control

CC[N+]1=NC2CCCC(C2)C1 (configuration not stated)
inactive: [15] 96 % of control | [13] 86 % of control | [4] 101 % of control | [14] 90 % of control | [5] 95 % of control

O=C(NC(=S)Nc1ccccc1)c1ccc([N+](=O)[O-])cc1
inactive: dose: 75.0 mg/kg/injection, schedule: Q01DX001 (ip), vehicle: carboxymethylcellulose (CMC) 98 % of control | dose: 150.0 mg/kg/injection, schedule: Q01DX001 (ip), vehicle: carboxymethylcellulose (CMC) 90 % of control | dose: 300.0 mg/kg/injection, schedule: Q01DX001 (ip), vehicle: carboxymethylcellulose (CMC) 101 % of control

CCCCCNC(=O)CCCC
inactive: dose: 100.0 mg/kg/injection, schedule: Q01DX001 (ip), vehicle: carboxymethylcellulose (CMC) 103 % of control | dose: 100.0 mg/kg/injection, schedule: Q01DX009 (ip), vehicle: carboxymethylcellulose (CMC) 97 % of control and 108 % of control | dose: 100.0 mg/kg/injection, schedule: Q04DX002 (ip), vehicle: carboxymethylcellulose (CMC) 97 % of control | dose: 100.0 mg/kg/injection, schedule: Q04DX003 (ip), vehicle: carboxymethylcellulose (CMC) 101 % of control | dose: 200.0 mg/kg/injection, schedule: Q01DX001 (ip), vehicle: carboxymethylcellulose (CMC) 104 % of control | dose: 200.0 mg/kg/injection, schedule: Q01DX009 (ip), vehicle: carboxymethylcellulose (CMC) 101 % of control and 103 % of control | dose: 200.0 mg/kg/injection, schedule: Q04DX002 (ip), vehicle: carboxymethylcellulose (CMC) 97 % of control | dose: 200.0 mg/kg/injection, schedule: Q04DX003 (ip), vehicle: carboxymethylcellulose (CMC) 97 % of control | dose: 400.0 mg/kg/injection, schedule: Q04DX002 (ip), vehicle: carboxymethylcellulose (CMC) 97 % of control | dose: 400.0 mg/kg/injection, schedule: Q04DX003 (ip), vehicle: carboxymethylcellulose (CMC) 94 % of control

O=C(O)c1cocc1C(=O)N1Cc2cc3ccccc3nc2C1
inactive: dose: 10.0 mg/kg/injection, schedule: Q04DX003 (ip), vehicle: saline 103 % of control | dose: 20.0 mg/kg/injection, schedule: Q04DX003 (ip), vehicle: saline 97 % of control | dose: 40.0 mg/kg/injection, schedule: Q04DX003 (ip), vehicle: saline 105 % of control | dose: 80.0 mg/kg/injection, schedule: Q04DX003 (ip), vehicle: saline 100 % of control | dose: 160.0 mg/kg/injection, schedule: Q04DX003 (ip), vehicle: saline 103 % of control

c1ccc(CNNC2=NCCN2)cc1
inactive: dose: 15.0 mg/kg/injection, schedule: Q01DX009 (ip), vehicle: saline 103 % of control | dose: 31.0 mg/kg/injection, schedule: Q01DX009 (ip), vehicle: saline 102 % of control | dose: 50.0 mg/kg/injection, schedule: Q01DX001 (ip), vehicle: saline 103 % of control | dose: 62.5 mg/kg/injection, schedule: Q01DX009 (ip), vehicle: saline 92 % of control | [1] 114 % of control

C=C[CH2][Sn]([Br])([Br])[Br]
inactive: [15] 115 % of control | [13] 95 % of control | [14] 86 % of control
